Molecules are shown by their SMILES.

Consider twelve compounds from patent US20010011063A1, “Substituted 2,4-diamino-1,3,5-triazines, processes for their preparation and their use as herbicides and plant growth regulators” (priority 1999, published 2001).

Common to all, as to format: in vivo
The subject of assay [1] is Stellaria media, Lolium multiflorum, Amaranthus retroflexus, Sinapis alba, Avena sativa and Settaria viridis. Nature of the assay: Pre-emergence effect on weeds (greenhouse pot test). Particulars: application rate of 1 kg or less of active substance per hectare; visually scored after 3 to 4 weeks by comparison with untreated controls. An excerpt:
Seeds or rhizome pieces of mono and dicotyledonous weed plants are placed in sandy loam soil in plastic pots and covered with soil. The compounds according to the invention which are formulated in the form of wettable powders or emulsion concentrates are then applied to the soil cover in the form of aqueous suspensions or emulsions at an application rate of 600 to 800 l of water/ha (converted), in various dosages.

Assay [2] relates to Cyperus monti, Echinochloa crus-galli and Sagitaria pygmaea. As to the kind of experiment: Action on harmful plants in rice (paddy rice conditions). Further: test concentration or dose not given here. The settings on record: poured into the dammed water, visual scoring about three weeks after application. An excerpt:
Transplanted and sown rice and also typical rice weeds (gramineous and broad-leaved) are cultivated in closed plastic pots in a greenhouse to the three-leaf stage (Echinochloa crus-galli 1.5-leaf) under paddy rice conditions (height of water: 2-3 cm). This is followed by treatment with the compounds according to the invention. For this purpose, the formulated active compounds are suspended, dissolved or emulsified in water and applied by pouring them into the dammed water around the test plants in different dosages.

Assay [3] deals with Sinapis alba, Echinochloa crus-galli, Lolium multiforum, Stellaria media, Cyperus iria, Amaranthus retroflexus, Settaria viridis and Avena sativa. Nature of the assay: Post-emergence effect on weeds (greenhouse pot test). The settings on record: application rate of 1 kg or less of active substance per hectare; treated at the three-leaf stage; scored visually after about 3 to 4 weeks vs untreated controls. Here is the method:
Seeds or rhizome pieces of mono- and dicotyledonous weeds are placed in sandy loam soil in plastic pots, covered with soil and grown in a greenhouse under good growth conditions. Three weeks after sowing, the test plants are treated at the three-leaf stage. The compounds according to the invention, formulated as wettable powders or emulsion concentrates, are sprayed, at various dosages, onto the green parts of the plants at an application rate of 600 to 800 l of water/ha (converted). After the test plants had remained in the greenhouse for about 3 to 4 weeks under optimum growth conditions, the effect of the preparations is scored visually by comparison with untreated controls. The agents according to the invention also have good herbicidal activity post-emergence against a broad spectrum of economically important weed grasses and broad-leaved weeds.

Turning to `CC(C)(F)c1nc(N)nc(NC(CCc2ccccc2)CC2CC2(F)F)n1` (mixture of isomers) [Example 1-157], the “herbicidal activity pre-emergence against harmful plants” value (“herbicidal activity pre-emergence” below) in assay [1] was “very good herbicidal activity”. The “herbicidal activity against harmful plants which are typical for rice crops” value (shortened to “herbicidal activity … for rice crops”) in assay [2] is “very good herbicidal activity”. The “herbicidal activity post-emergence against harmful plants” value (“herbicidal activity post-emergence” below) in assay [3] is “very good herbicidal activity”.
Regarding `CC(C)c1nc(N)nc(NC(CCc2ccccc2)CC2CC2(F)F)n1` (mixture of isomers) [Example 1-158], the “herbicidal activity pre-emergence” value in assay [1] is given as “very good herbicidal activity”. In addition, in assay [2], the “herbicidal activity … for rice crops” value is on record as “very good herbicidal activity”. Also, in assay [3], the “herbicidal activity post-emergence” value is on record as “very good herbicidal activity”.
`CC(C)(F)c1nc(N)nc(NC(CCc2cccc(F)c2)C2CC2(Cl)Cl)n1` (mixture of isomers) [Example 2-6]: the “herbicidal activity post-emergence” value in assay [3] is “very good herbicidal activity”.
For the compound `CC(C)(F)c1nc(N)nc(NC(CCc2ccccc2)CC2CC2(F)F)n1` (mixture of isomers) [Example 2-157], the “herbicidal activity pre-emergence” value in assay [1] is on record as “very good herbicidal activity”. For the same compound, in assay [2], the “herbicidal activity … for rice crops” value is given as “very good herbicidal activity”. In assay [3], the “herbicidal activity post-emergence” value was “very good herbicidal activity”.
As for `CC(C)c1nc(N)nc(NC(CCc2ccccc2)CC2CC2(F)F)n1` (mixture of isomers) [Example 2-158], in assay [1], the “herbicidal activity pre-emergence” value is on record as “very good herbicidal activity”. In addition, the “herbicidal activity … for rice crops” value in assay [2] was “very good herbicidal activity”. Also, the “herbicidal activity post-emergence” value in assay [3] is on record as “very good herbicidal activity”.
Regarding `CC(F)c1nc(N)nc(NC(CCCc2ccccc2)C2CC2)n1` (mixture of isomers) [Example 3-3], the “herbicidal activity pre-emergence” value in assay [1] is given as “very good herbicidal activity”. In addition, the “herbicidal activity … for rice crops” value in assay [2] is reported as “very good herbicidal activity”. The “herbicidal activity post-emergence” value in assay [3] is recorded as “very good herbicidal activity”.
Turning to `CC(F)c1nc(N)nc(NC(CCCc2ccccc2)C2CC2)n1` (mixture of isomers) [Example 4-3], in assay [1], the “herbicidal activity pre-emergence” value is “very good herbicidal activity”. The “herbicidal activity … for rice crops” value in assay [2] is recorded as “very good herbicidal activity”. Moreover, the “herbicidal activity post-emergence” value in assay [3] is “very good herbicidal activity”.
Consider `CC(C)c1nc(N)nc(N[C@@H](CCc2ccccc2)C2CCC2)n1` [Example 1-14], for which the “herbicidal activity pre-emergence” value in assay [1] is recorded as “very good herbicidal activity”. Moreover, the “herbicidal activity … for rice crops” value in assay [2] was “very good herbicidal activity”. Besides, the “herbicidal activity post-emergence” value in assay [3] is given as “very good herbicidal activity”.
As to `CC(C)(F)c1nc(N)nc(N[C@@H](CCc2ccccc2)C2CCC2)n1` [Example 1-15], the “herbicidal activity pre-emergence” value in assay [1] was “very good herbicidal activity”. Besides, in assay [2], the “herbicidal activity … for rice crops” value is on record as “very good herbicidal activity”. For the same compound, the “herbicidal activity post-emergence” value in assay [3] is “very good herbicidal activity”.
Take `Cc1nc(N)nc(N[C@@H](CCc2ccccc2)C2CCC2)n1` [Example 1-16]: in assay [1], the “herbicidal activity pre-emergence” value is on record as “very good herbicidal activity”. Also, the “herbicidal activity … for rice crops” value in assay [2] is “very good herbicidal activity”. Besides, the “herbicidal activity post-emergence” value in assay [3] is “very good herbicidal activity”.
For the compound `CC(C)c1nc(N)nc(N[C@@H](CCc2cccc(Cl)c2)C2CCC2)n1` [Example 1-23], the “herbicidal activity pre-emergence” value in assay [1] is “very good herbicidal activity”. Also, the “herbicidal activity … for rice crops” value in assay [2] is reported as “very good herbicidal activity”. Besides, the “herbicidal activity post-emergence” value in assay [3] is on record as “very good herbicidal activity”.
Take `Cc1nc(N)nc(N[C@H](CCc2ccccc2)C2CCC2)n1` [Example 2-16]: the “herbicidal activity pre-emergence” value in assay [1] is listed as “very good herbicidal activity”. Also, the “herbicidal activity … for rice crops” value in assay [2] is “very good herbicidal activity”.
